In patent US20080025918A1, “Invisible light fluorescent platelets for intraoperative detection of vascular thrombosis” (Beth Israel Deaconess Medical Center, Inc., priority 2006, published 2008):

How the values were obtained:
[1] = Spectral characteristics and relative fluorescence yield of IR-786 (absorbance and fluorescence measurements); format: physicochemical; details: for Relative Fluorescence Yield: samples matched for absorbance, 655 nm excitation
Description: Absorbance and fluorescence measurements were performed in 1 cm quartz cuvettes as described previously (Ohnishi et al., Mol. Imaging., 2005; 4(3):172-181). For measurement of relative fluorescence yield, IR-786 samples in Tyrodes-HEPES, methanol, or concentrated in washed platelets were matched for absorbance (0.1 A units) and area under the fluorescence emission curve calculated after excitation with a 5 mW 655 nm laser diode.

washed pig platelets = experiment: Pig platelet aggregation (aggregometry); format: cell-based; details: washed pig platelets incubated 30 minutes with 2 μM IR-786
Description: To ensure that platelets loaded with 2 μM IR-786 retained function, the ability of IR-786-loaded platelets to aggregate in response to agonists was assessed. Loaded and non-loaded human platelets, resuspended at a density of 4×10^8 cells/mL in modified Tyrodes-HEPES buffer, were stimulated with agonists in siliconized glass tubes in an optical aggregometer (Chronolog, Havertown, Pa.). Assays were performed at 37° C. and with constant stirring. Aggregation was monitored by measurement of optical density of the platelet suspension (Croce et al., J. Biol. Chem., 1999; 274(51):36321-36327)
The ability of pig platelets to aggregate following incubation with IR-786 was also tested, using aggregometry as described above.

resting platelets = experiment: P-selectin surface expression of resting loaded platelets; format: cell-based, human; details: resting platelets loaded with 2 μM IR-786
[2] = following incorporation into platelets

emission maximum [1, 2]: 804 nm
excitation maximum [1, 2]: 788 nm
Peak Absorbance ([1]; in Methanol): 775 nm
Peak Emission ([1]; in Methanol): 797 nm
Relative Fluorescence Yield ([1]; in Methanol): 9.5
Peak Absorbance ([1]; in Platelets): 788 nm
Peak Emission ([1]; in Platelets): 804 nm
Relative Fluorescence Yield ([1]; in Platelets): 1.0
Peak Absorbance ([1]; in Tyrode's-HEPES): 769 nm
Peak Emission ([1]; in Tyrode's-HEPES): 789 nm
Relative Fluorescence Yield ([1]; in Tyrode's-HEPES): 1.4
emission maximum ([1]; in aqueous buffer): 788.8 nm
excitation maximum ([1]; in aqueous buffer): 769.3 nm
Structure (SMILES): CN1C(=CC=C2CCCC(C=CC3=[N+](C)c4ccccc4C3(C)C)=C2Cl)C(C)(C)c2ccccc21.[O-][Cl+3]([O-])([O-])[O-] [IR-786]
aggregation in response to thrombin or CRP (washed pig platelets): aggregated normally
P-selectin surface expression (platelet activation) (resting platelets): no significant P-selectin surface expression
